From patent US6960574B2, “Antagonists of RF-amide neuropeptides” (University of Florida, priority 2002, dated 2005)
Square brackets hold non-standard residues; d marks the D form. Peptide text beside a SMILES is read from it. * marks the point of attachment. ξ: configuration not given here. Dansyl = CN(C)c1cccc2c(S(=O)(=O)*)cccc12; ξL = CC(C)CC(N)C(=O)O

System: receptor labeled by the radioiodinated analogue of 1 (4, [125I]-YLFQPQRF-NH2); neuropeptide FF receptor
Assay: Competitive radioligand binding against 4 ([125I]Y8F-amide)
Conditions: mixture-based positional scanning; difference from averaged radioligand displacement of whole library (0); about 80 a.u. = 10-fold change in Ki

Compound	Relative Binding Index (RBI) [a.u.]
CSCC[C@H](NS(=O)(=O)c1cccc2c(N(C)C)cccc12)C(=O)N[C@H](C(=O)N[C@@H](CCCNC(=N)N)C(N)=O)C(C)C [Dansyl-MVR-amide] (Dansyl-Met-Val-Arg-NH2)	−49
CSCC[C@H](NS(=O)(=O)c1cccc2c(N(C)C)cccc12)C(=O)N[C@@H](Cc1c[nH]c2ccccc12)C(=O)N[C@@H](CCCNC(=N)N)C(N)=O [Dansyl-MWR-amide] (Dansyl-Met-Trp-Arg-NH2)	−35
CSCC[C@H](NS(=O)(=O)c1cccc2c(N(C)C)cccc12)C(=O)N[C@@H](Cc1ccc(O)cc1)C(=O)N[C@@H](CCCNC(=N)N)C(N)=O [Dansyl-MYR-amide] (Dansyl-Met-Tyr-Arg-NH2)	−45
C[C@H](NC(=O)[C@H](CC(N)=O)NS(=O)(=O)c1cccc2c(N(C)C)cccc12)C(=O)N[C@@H](CCCNC(=N)N)C(N)=O [Dansyl-NAR-amide] (Dansyl-Asn-Ala-Arg-NH2)	−36
CN(C)c1cccc2c(S(=O)(=O)N[C@@H](CC(N)=O)C(=O)N[C@@H](CC(=O)O)C(=O)N[C@@H](CCCNC(=N)N)C(N)=O)cccc12 [Dansyl-NDR-amide] (Dansyl-Asn-Asp-Arg-NH2)	−5
CN(C)c1cccc2c(S(=O)(=O)N[C@@H](CC(N)=O)C(=O)NCC(=O)N[C@@H](CCCNC(=N)N)C(N)=O)cccc12 [Dansyl-NGR-amide] (Dansyl-Asn-Gly-Arg-NH2)	18
CN(C)c1cccc2c(S(=O)(=O)N[C@@H](CC(N)=O)C(=O)N[C@@H](Cc3c[nH]cn3)C(=O)N[C@@H](CCCNC(=N)N)C(N)=O)cccc12 [Dansyl-NHR-amide] (Dansyl-Asn-His-Arg-NH2)	7
CC[C@H](C)[C@H](NC(=O)[C@H](CC(N)=O)NS(=O)(=O)c1cccc2c(N(C)C)cccc12)C(=O)N[C@@H](CCCNC(=N)N)C(N)=O [Dansyl-NIR-amide] (Dansyl-Asn-Ile-Arg-NH2)	19
CN(C)c1cccc2c(S(=O)(=O)N[C@@H](CC(N)=O)C(=O)N[C@@H](CCCCN)C(=O)N[C@@H](CCCNC(=N)N)C(N)=O)cccc12 [Dansyl-NKR-amide] (Dansyl-Asn-Lys-Arg-NH2)	10
CC(C)CC(NC(=O)[C@H](CC(N)=O)NS(=O)(=O)c1cccc2c(N(C)C)cccc12)C(=O)N[C@@H](CCCNC(=N)N)C(N)=O (some centres unmarked) [Dansyl-NLR-amide] (Dansyl-Asn-[ξL]-Arg-NH2)	4
CSCC[C@H](NC(=O)[C@H](CC(N)=O)NS(=O)(=O)c1cccc2c(N(C)C)cccc12)C(=O)N[C@@H](CCCNC(=N)N)C(N)=O [Dansyl-NMR-amide] (Dansyl-Asn-Met-Arg-NH2)	13
CN(C)c1cccc2c(S(=O)(=O)N[C@@H](CC(N)=O)C(=O)N[C@@H](CC(N)=O)C(=O)N[C@@H](CCCNC(=N)N)C(N)=O)cccc12 [Dansyl-NNR-amide] (Dansyl-Asn-Asn-Arg-NH2)	14
CN(C)c1cccc2c(S(=O)(=O)N[C@@H](CC(N)=O)C(=O)N[C@@H](CCC(N)=O)C(=O)N[C@@H](CCCNC(=N)N)C(N)=O)cccc12 [Dansyl-NQR-amide] (Dansyl-Asn-Gln-Arg-NH2)	26
CN(C)c1cccc2c(S(=O)(=O)N[C@@H](CC(N)=O)C(=O)N[C@@H](CCCNC(=N)N)C(=O)N[C@@H](CCCNC(=N)N)C(N)=O)cccc12 [Dansyl-NRR-amide] (Dansyl-Asn-Arg-Arg-NH2)	11
CN(C)c1cccc2c(S(=O)(=O)N[C@@H](CC(N)=O)C(=O)N[C@@H](CO)C(=O)N[C@@H](CCCNC(=N)N)C(N)=O)cccc12 [Dansyl-NSR-amide] (Dansyl-Asn-Ser-Arg-NH2)	33
C[C@@H](O)[C@H](NC(=O)[C@H](CC(N)=O)NS(=O)(=O)c1cccc2c(N(C)C)cccc12)C(=O)N[C@@H](CCCNC(=N)N)C(N)=O [Dansyl-NTR-amide] (Dansyl-Asn-Thr-Arg-NH2)	18
CC(C)[C@H](NC(=O)[C@H](CC(N)=O)NS(=O)(=O)c1cccc2c(N(C)C)cccc12)C(=O)N[C@@H](CCCNC(=N)N)C(N)=O [Dansyl-NVR-amide] (Dansyl-Asn-Val-Arg-NH2)	8
CN(C)c1cccc2c(S(=O)(=O)N[C@@H](CC(N)=O)C(=O)N[C@@H](Cc3c[nH]c4ccccc34)C(=O)N[C@@H](CCCNC(=N)N)C(N)=O)cccc12 [Dansyl-NWR-amide] (Dansyl-Asn-Trp-Arg-NH2)	22
CN(C)c1cccc2c(S(=O)(=O)N[C@@H](CC(N)=O)C(=O)N[C@@H](Cc3ccc(O)cc3)C(=O)N[C@@H](CCCNC(=N)N)C(N)=O)cccc12 [Dansyl-NYR-amide] (Dansyl-Asn-Tyr-Arg-NH2)	12
C[C@H](NC(=O)[C@H](CCC(N)=O)NS(=O)(=O)c1cccc2c(N(C)C)cccc12)C(=O)N[C@@H](CCCNC(=N)N)C(N)=O [Dansyl-QAR-amide] (Dansyl-Gln-Ala-Arg-NH2)	−28
CN(C)c1cccc2c(S(=O)(=O)N[C@@H](CCC(N)=O)C(=O)N[C@@H](CC(=O)O)C(=O)N[C@@H](CCCNC(=N)N)C(N)=O)cccc12 [Dansyl-QDR-amide] (Dansyl-Gln-Asp-Arg-NH2)	3
CN(C)c1cccc2c(S(=O)(=O)N[C@@H](CCC(N)=O)C(=O)N[C@@H](CCC(=O)O)C(=O)N[C@@H](CCCNC(=N)N)C(N)=O)cccc12 [Dansyl-QER-amide] (Dansyl-Gln-Glu-Arg-NH2)	22

Results, then the compound that gave them:

Relative Binding Index (RBI) [a.u.]	Compound
11	CN(C)c1cccc2c(S(=O)(=O)N[C@@H](CC(N)=O)C(=O)N[C@@H](Cc3ccccc3)C(=O)N[C@@H](CCCNC(=N)N)C(N)=O)cccc12 [Dansyl-NFR-amide] (Dansyl-Asn-Phe-Arg-NH2)
16	CN(C)c1cccc2c(S(=O)(=O)N[C@@H](CC(N)=O)C(=O)N3CCC[C@H]3C(=O)N[C@@H](CCCNC(=N)N)C(N)=O)cccc12 [Dansyl-NPR-amide] (Dansyl-Asn-Pro-Arg-NH2)
−97	C[C@H](NC(=O)[C@@H]1CCCN1S(=O)(=O)c1cccc2c(N(C)C)cccc12)C(=O)N[C@@H](CCCNC(=N)N)C(N)=O [Dansyl-PAR-amide] (Dansyl-Pro-Ala-Arg-NH2)
−66	CN(C)c1cccc2c(S(=O)(=O)N3CCC[C@H]3C(=O)N[C@@H](CC(=O)O)C(=O)N[C@@H](CCCNC(=N)N)C(N)=O)cccc12 [Dansyl-PDR-amide] (Dansyl-Pro-Asp-Arg-NH2)
−48	CN(C)c1cccc2c(S(=O)(=O)N3CCC[C@H]3C(=O)N[C@@H](CCC(=O)O)C(=O)N[C@@H](CCCNC(=N)N)C(N)=O)cccc12 [Dansyl-PER-amide] (Dansyl-Pro-Glu-Arg-NH2)
−49	CN(C)c1cccc2c(S(=O)(=O)N3CCC[C@H]3C(=O)N[C@@H](Cc3ccccc3)C(=O)N[C@@H](CCCNC(=N)N)C(N)=O)cccc12 [Dansyl-PFR-amide] (Dansyl-Pro-Phe-Arg-NH2)
−43	CN(C)c1cccc2c(S(=O)(=O)N3CCC[C@H]3C(=O)NCC(=O)N[C@@H](CCCNC(=N)N)C(N)=O)cccc12 [Dansyl-PGR-amide] (Dansyl-Pro-Gly-Arg-NH2)
−54	CN(C)c1cccc2c(S(=O)(=O)N3CCC[C@H]3C(=O)N[C@@H](Cc3cnc[nH]3)C(=O)N[C@@H](CCCNC(=N)N)C(N)=O)cccc12 [Dansyl-PHR-amide] (Dansyl-Pro-His-Arg-NH2)
−41	CC[C@H](C)[C@H](NC(=O)[C@@H]1CCCN1S(=O)(=O)c1cccc2c(N(C)C)cccc12)C(=O)N[C@@H](CCCNC(=N)N)C(N)=O [Dansyl-PIR-amide] (Dansyl-Pro-Ile-Arg-NH2)
−50	CN(C)c1cccc2c(S(=O)(=O)N3CCC[C@H]3C(=O)N[C@@H](CCCCN)C(=O)N[C@@H](CCCNC(=N)N)C(N)=O)cccc12 [Dansyl-PKR-amide] (Dansyl-Pro-Lys-Arg-NH2)
−56	CC(C)C[C@H](NC(=O)[C@@H]1CCCN1S(=O)(=O)c1cccc2c(N(C)C)cccc12)C(=O)N[C@@H](CCCNC(=N)N)C(N)=O [Dansyl-PLR-amide] (Dansyl-Pro-Leu-Arg-NH2)
−48	CSCC[C@H](NC(=O)[C@@H]1CCCN1S(=O)(=O)c1cccc2c(N(C)C)cccc12)C(=O)N[C@@H](CCCNC(=N)N)C(N)=O [Dansyl-PMR-amide] (Dansyl-Pro-Met-Arg-NH2)
−47	CN(C)c1cccc2c(S(=O)(=O)N3CCC[C@H]3C(=O)N[C@@H](CC(N)=O)C(=O)N[C@@H](CCCNC(=N)N)C(N)=O)cccc12 [Dansyl-PNR-amide] (Dansyl-Pro-Asn-Arg-NH2)
−45	CN(C)c1cccc2c(S(=O)(=O)N3CCC[C@H]3C(=O)N3CCC[C@H]3C(=O)N[C@@H](CCCNC(=N)N)C(N)=O)cccc12 [Dansyl-PPR-amide] (Dansyl-Pro-Pro-Arg-NH2)
−49	CN(C)c1cccc2c(S(=O)(=O)N3CCC[C@H]3C(=O)N[C@@H](CCCNC(=N)N)C(=O)N[C@@H](CCCNC(=N)N)C(N)=O)cccc12 [Dansyl-PRR-amide]
−27	CN(C)c1cccc2c(S(=O)(=O)N3CCC[C@H]3C(=O)N[C@@H](CO)C(=O)N[C@@H](CCCNC(=N)N)C(N)=O)cccc12 [Dansyl-PSR-amide] (Dansyl-Pro-Ser-Arg-NH2)
−42	C[C@@H](O)[C@H](NC(=O)[C@@H]1CCCN1S(=O)(=O)c1cccc2c(N(C)C)cccc12)C(=O)N[C@@H](CCCNC(=N)N)C(N)=O [Dansyl-PTR-amide] (Dansyl-Pro-Thr-Arg-NH2)
−53	CC(C)[C@H](NC(=O)[C@@H]1CCCN1S(=O)(=O)c1cccc2c(N(C)C)cccc12)C(=O)N[C@@H](CCCNC(=N)N)C(N)=O [Dansyl-PVR-amide] (Dansyl-Pro-Val-Arg-NH2)
−39	CN(C)c1cccc2c(S(=O)(=O)N3CCC[C@H]3C(=O)N[C@@H](Cc3c[nH]c4ccccc34)C(=O)N[C@@H](CCCNC(=N)N)C(N)=O)cccc12 [Dansyl-PWR-amide] (Dansyl-Pro-Trp-Arg-NH2)
